What was measured:
Type in all cases: in vivo
[1] = tested on: Cotton aphid (Aphis gossypii, mixed life stages); experiment: Activity against cotton aphid, foliar spray on infested cotton plants; settings: 120 h, determined after 5 days, read-out: mortality in comparison with untreated controls
Procedure: II.1 Activity Against Cotton Aphid (Aphis gossypii, Mixed Life Stages)
(§1) The active compounds were formulated in cyclohexanone as a 10,0000 ppm solution supplied in 1.3 ml ABgene® tubes. These tubes were inserted into an automated electrostatic sprayer equipped with an atomizing nozzle and they served as stock solutions for which lower dilutions were made in 50% acetone:50% water (v/v). A nonionic surfactant (Kinetic®) was included in the solution at a volume of 0.01% (v/v).
Cotton plants at the cotyledon stage were infested with aphids prior to treatment by placing a heavily infested leaf from the main aphid colony on top of each cotyledon. Aphids were allowed to transfer overnight to accomplish an infestation of 80-100 aphids per plant and the host leaf was removed. The infested plants were then sprayed by an automated electrostatic plant sprayer equipped with an atomizing spray nozzle. The plants were dried in the sprayer fume hood, removed from the sprayer, and then maintained in a growth room under fluorescent lighting in a 24-hr photoperiod at 25° C. and 20-40% relative humidity. Aphid mortality on the treated plants, relative to mortality on untreated control plants, was determined after 5 days.

[2] = tested on: Green peach aphid (Myzus persicae, mixed life stages); experiment: Activity against green peach aphid, foliar spray on infested bell pepper plants; settings: 120 h, determined after 5 days, read-out: mortality in comparison with untreated controls
Procedure: II.2 Activity Against Green Peach Aphid (Myzus persicae, Mixed Life Stages)
as §1
Bell pepper plants at the first true-leaf stage were infested prior to treatment by placing heavily infested leaves from the main colony on top of the treatment plants. Aphids were allowed to transfer overnight to accomplish an infestation of 30-50 aphids per plant and the host leaves were removed. The infested plants were then sprayed by an automated electrostatic plant sprayer equipped with an atomizing spray nozzle. The plants were dried in the sprayer fume hood, removed, and then maintained in a growth room under fluorescent lighting in a 24-hr photoperiod at 25° C. and 20-40% relative humidity. Aphid mortality on the treated plants, relative to mortality on untreated control plants, was determined after 5 days.

[3] = tested on: Cowpea aphid (Aphis craccivora); experiment: Activity against cowpea aphid, spray on potted cowpea plants; settings: spray on colonized cowpea plants, population reduction assessed after 24, 72 and 120 hours, read-out: mortality in comparison with untreated controls
Procedure: II.3 Activity Against Cowpea Aphid (Aphis craccivora)
The active compounds were formulated in 50:50 (vol:vol) acetone:water. The test solution was prepared at the day of use.
Potted cowpea plants colonized with 100-150 aphids of various stages were sprayed after the pest population had been recorded. Population reduction was assesed after 24, 72, and 120 hours.

[4] = tested on: Silverleaf whitefly (bemisia argentifolii, adult); experiment: Activity against silverleaf whitefly, sprayed cotton plants; settings: 72 h, whitefly adults, assessed 3 days after treatment, read-out: mortality in comparison with untreated controls
Procedure: II.4 Activity Against Silverleaf Whitefly (bemisia argentifolii, Adult)
as §1
Cotton plants at the cotyledon stage (one plant per pot) were sprayed by an automated electrostatic plant sprayer equipped with an atomizing spray nozzle. The plants were dried in the sprayer fume hood and then removed from the sprayer. Each pot was placed into a plastic cup and 10 to 12 whitefly adults (approximately 3-5 days old) were introduced. The insects were collected using an aspirator and 0.6 cm, nontoxic Tygon® tubing (R-3603) connected to a barrier pipette tip. The tip, containing the collected insects, was then gently inserted into the soil containing the treated plant, allowing insects to crawl out of the tip to reach the foliage for feeding. Cups were covered with a reusable screened lid (150-micron mesh polyester screen PeCap from Tetko, Inc.). […] Mortality was assessed 3 days after treatment, compared to untreated control plants.

[5] = tested on: Vetch aphid (Megoura viciae); experiment: Activity against vetch aphid, bean leaf disks in microtiterplates; settings: foliar, 144 h, test solution 2500 mg/L, 2.5 μl sprayed on bean leaf disks, 6 days
Procedure: II.5 Activity Against Vetch Aphid (Megoura viciae)
The active compounds were formulated in 1:3 (vol:vol) DMSO: water with different concentrations of formulated compounds.
Bean leaf disks were placed into microtiterplates filled with 0.8% agar-agar and 2.5 ppm OPUS™. The leaf disks were sprayed with 2.5 μl of the test solution and 5 to 8 adult aphids were placed into the microtiterplates which were then closed and kept at 23±1° C. and 50±5% relative humidity under fluorescent light for 6 days. Mortality was assessed on the basis of vital, reproduced aphids. Aphid mortality and fecundity was then visually assessed.

[6] = tested on: Green peach aphid (Myzus persicae); experiment: Activity against green peach aphid through systemic means, artificial diet in 96-well microtiter plates; settings: 72 h, read-out: mortality in comparison with untreated controls
Description: II.6 Activity Against Green Peach Aphid (Myzus persicae)
For evaluating control of green peach aphid (Myzus persicae) through systemic means the test unit consisted of 96-well-microtiter plates containing liquid artificial diet under an artificial membrane.
The compounds were formulated using a solution containing 75% v/v water and 25% v/v DMSO. Different concentrations of formulated compounds were pipetted into the aphid diet, using a custom built pipetter, at two replications. After application, 5 to 8 adult aphids were placed on the artificial membrane inside the microtiter plate wells. The aphids were then allowed to suck on the treated aphid diet and incubated at about 23+1° C. and about 50+5% relative humidity for 3 days. Aphid mortality and fecundity was then visually assessed.

[7] = tested on: Vanda/Orchid thrips (Dichromothrips corbetti); experiment: Activity against Vanda/orchid thrips, petal dip; settings: orchid petals dipped, recorded after 72 hours, read-out: mortality in comparison with untreated controls
Procedure: II.7 Activity Against Vanda/Orchid Thrips (Dichromothrips corbetti)
The active compounds were formulated as a 50:50 (vol:vol) acetone:water solution. Surfactant (Alkamuls EL 620) was added at the rate of 0.1% (vol/vol). Vanda orchids petals were cleaned, washed and air dried prior to spraying. Petals were dipped into the test solution for 3 seconds, air dried, placed inside a resealable plastic and inoculated with 20 adults. The treated petals were kept inside the holding room at 28-29° C. and relative humidity of 50-60%. Percent mortality was recorded after 72 hours.

[8] = tested on: Green peach aphids (Myzus persicae); experiment: Hydroponic test against green peach aphids, bare-root green pepper plants; settings: bare roots immersed 24 hours, assay 3 days, read-out: mortality in comparison with untreated controls
Procedure: II.7.1 Activity in the Hydroponic Tests Against Green Peach Aphids (Myzus persicae)
(§2) Green pepper plants (Capsicum annuum L., variety ‘California Wonder’) are grown in the greenhouse from seed to the second true leaf stage (BBCH 12) in Scott's MetroMix® 360 (1-2 plants per 2¼″ square pot). Cotyledon leaves are removed and roots are rinsed in tap water until free of soil. The roots are kept moist under a layer of wet paper toweling until all plants have been prepared.
(§3) A 3,400 ppm stock solution is prepared of each test compound using reagent grade acetone as the solvent. Subsequent dilutions of 100 and 10 ppm are prepared from this stock with final dilutions in deionized water in 100 ml amber glass bottles. One bare root plant is placed in each bottle using a foam plug section to centrally secure the stem in the bottleneck. The bare roots are fully-immersed in the test suspensions. Host plants are placed in a plant growth room under continuous GroLux® fluorescent lighting (40W), for 24 hours at 25±2° C. and 20-40% RH.
(§4) After exposure of the bare roots to the test suspensions, pieces of pepper plants infested with green peach aphid (Myzus persicae) are placed on top of the test foliage. Insects are allowed to transfer from the host leaves to accomplish an infestation of 40-50 insects per plant. […] Phytotoxic responses of the host plants are also recorded at this time.

[9] = tested on: Cotton aphids (Aphis gossypii); experiment: Hydroponic test against cotton aphids, bare-root cotton plants; settings: bare roots immersed 24 hours, assay 3 days, read-out: mortality in comparison with untreated controls
Procedure: II.8 Activity in the Hydroponic Tests against Cotton Aphids (Aphis gossypii)
as §2, with “Cotton” for “Green pepper”, “(Gossypium hirsutum,” for “(Capsicum annuum L.,”, “‘Sure Grow 747’)” for “‘California Wonder’)”, “Metro-Mix®” for “MetroMix®”
as §3
as §4, with “cotton” for “pepper”, “cotton aphids (Aphis gossypii)” for “green peach aphid (Myzus persicae)”

O=C(Nc1ccnnc1)c1conc1C1CC1 [Compound 4, 3-Cyclopropyl-isoxazole-4-carboxylic acid pyridazin-4-ylamide]
mortality at 300 ppm [1]: ≥ 75%
mortality at 300 ppm [2]: ≥ 75%
mortality at 300 ppm [3]: ≥ 90%
mortality at 300 ppm [4]: ≥ 75%
mortality at 2500 µg/mL [5]: ≥ 90%
mortality at 2500 ppm [6]: 100%
mortality at 500 ppm [7]: ≥ 50%
mortality at 100 ppm [8]: ≥ 75%
mortality at 100 ppm [9]: ≥ 75%

CN(C(=O)c1conc1C1CC1)c1ccnnc1 [Compound 5, 3-Cyclopropyl-isoxazole-4-carboxylic acid methyl-pyridazin-4-yl-amide]
mortality at 300 ppm [1]: ≥ 75%
mortality at 300 ppm [2]: ≥ 75%
mortality at 300 ppm [3]: ≥ 90%
mortality at 300 ppm [4]: ≥ 75%
mortality at 2500 µg/mL [5]: ≥ 90%
mortality at 2500 ppm [6]: 100%
mortality at 500 ppm [7]: ≥ 50%
mortality at 100 ppm [8]: ≥ 75%
mortality at 100 ppm [9]: ≥ 75%

— patent US8710056B2, “Pyridazine compounds for controlling invertebrate pests” (BASF SE, priority 2009, dated 2014)
